The term AUC(0-t) denotes the area under the concentration-time curve up to a stated or last time point. The term DC50 denotes the midpoint of the concentration-degradation curve. Usually IC50 stands for the point on the concentration scale where inhibition reaches its midpoint. In general, GI50 refers to the concentration giving 50% growth inhibition.

Results on 7 molecules are retold here after patent EP4763845A1, “CYANO AROMATIC RING DERIVATIVE AND PHARMACEUTICAL USE THEREOF” (Haisco Pharmaceutical Group Co., Ltd., priority 2023, dated 2025).

The structures appear in SMILES notation. Where two headings read alike, the source gives them in different places. A value given as a limit tells only on which side of the number the result lay.

Series [1] is described as follows: Pharmacokinetic test in mice. The series is classed as in vivo, ICR mice. The conditions noted are these: i.g. (5 mg/kg); for AUC(0-t): mouse, plasma, po. Here is the method: Experimental objective: In this experiment, a single dose of the test compound was administered to ICR mice via intravenous administration and intragastric gavage, and the concentration of the test compound in plasma of the mice was measured to evaluate the pharmacokinetic profile of the test compound in the mice.
Experimental animals: Male ICR mice, 6 mice/compound, purchased from Chengdu Ddossy Experimental Animals Co., Ltd.
Experimental method: On the day of the experiment, 6 […] were randomly grouped according to their body weights. The animals were fasted with water available for 12 to 14 h one day before the administration, and were fed 4 h after the administration. Table 6 Administration information of pharmacokinetic test in mice
Sampling: Before and after the administration, 0.15 mL of blood was taken from the orbits under isoflurane anaesthesia, and placed in an EDTAK2 centrifuge tube. Centrifugation was carried out at 5000 rpm at 4°C for 10 min, and the plasma was collected.
The plasma collection time points for PO groups were 0, 5 min, 15 min, 30 min, 1 h, 2 h, 4 h, 7 h, 24 h, and 48 h.
The plasma collection time points for IV groups were 0, 5 min, 15 min, 30 min, 1 h, 2 h, 4 h, 7 h, 24 h, and 48 h.
Before analysis and detection, all samples were stored at -60°C. The samples were analysed quantitatively by LC-MS/MS. Table 7 Pharmacokinetic parameters of compounds of the present invention in plasma of mice

A further series concerns the target T1, AR protein (Homo sapiens, UniProt P10275).
T1 construct: VCap is a human prostate cancer cell line purchased from ATCC; host or cells: VCaP human prostate cancer cells
T1 sequence (P10275 1-920): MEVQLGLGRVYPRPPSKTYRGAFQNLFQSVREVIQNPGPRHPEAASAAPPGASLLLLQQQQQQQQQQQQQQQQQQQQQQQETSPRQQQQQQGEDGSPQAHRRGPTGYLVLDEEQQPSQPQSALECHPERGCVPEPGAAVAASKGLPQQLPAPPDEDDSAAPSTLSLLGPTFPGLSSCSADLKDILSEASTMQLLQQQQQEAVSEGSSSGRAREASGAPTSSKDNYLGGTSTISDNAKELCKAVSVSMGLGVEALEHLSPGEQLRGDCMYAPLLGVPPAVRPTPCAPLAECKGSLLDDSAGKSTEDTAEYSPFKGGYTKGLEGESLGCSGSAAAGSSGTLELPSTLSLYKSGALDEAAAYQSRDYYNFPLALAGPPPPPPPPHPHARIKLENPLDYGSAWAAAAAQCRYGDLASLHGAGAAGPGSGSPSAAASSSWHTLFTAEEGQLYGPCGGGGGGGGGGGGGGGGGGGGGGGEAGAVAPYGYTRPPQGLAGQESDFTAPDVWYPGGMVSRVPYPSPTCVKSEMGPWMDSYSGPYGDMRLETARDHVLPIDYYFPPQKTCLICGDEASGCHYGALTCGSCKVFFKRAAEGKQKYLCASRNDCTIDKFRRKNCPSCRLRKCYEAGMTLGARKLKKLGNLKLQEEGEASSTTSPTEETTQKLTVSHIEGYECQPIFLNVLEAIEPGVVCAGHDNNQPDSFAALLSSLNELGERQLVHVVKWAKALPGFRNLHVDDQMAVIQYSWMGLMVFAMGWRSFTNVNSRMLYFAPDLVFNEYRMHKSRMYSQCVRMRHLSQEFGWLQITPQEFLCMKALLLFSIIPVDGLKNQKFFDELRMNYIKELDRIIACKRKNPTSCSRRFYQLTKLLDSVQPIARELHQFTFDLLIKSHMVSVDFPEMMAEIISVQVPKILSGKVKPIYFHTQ
Briefly: Detection of AR degradation in VCaP cells (automated western blot). To be noted: degradation of AR protein in VCaP cells, 24 hours incubation. The series is classed as cell-based. In short, it runs like this: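 VCaP cells (5 × 10^5/well) were treated with compounds at various concentrations for 24 h at 37°C. Lysate AR level was quantified by automated capillary western blot, normalised to β-actin and expressed relative to solvent control. DC50 came from four-parameter nonlinear regression; degradation rate = 100 − AR%.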
(In general: A western blot detects proteins with antibodies after separation by electrophoresis.)

In another series the target is T2, hERG potassium channel (Homo sapiens, UniProt Q12809).
T2 construct: expressed in transfected cells; host or cells: CHO cells stably expressing hERG
Briefly: hERG potassium ion channel test (manual patch-clamp, CHO cells). The series is classed as cell-based. The conditions noted are these: chinese hamster; inhibitory activity against hERG potassium channel current, CHO cells, whole cell patch-clamp; read-out: IC50. The text has this:
Experimental platform: Electrophysiological manual patch-clamp system
Cell line: Chinese hamster ovary (CHO) cell lines stably expressing hERG potassium ion channel
Experimental method: In Chinese Hamster Ovary (CHO) cells stably expressing hERG potassium channel, whole cell patch-clamp technique was used to record hERG potassium channel current at room temperature. The glass microelectrode was made of a glass electrode blank (BF150-86-10, Sutter) by a puller. The tip resistance after filling the liquid in the electrode was about 2-5 MΩ. The glass microelectrode can be connected to the patch-clamp amplifier by inserting the glass microelectrode into an amplifier probe. The clamping voltage and data recording were controlled and recorded by the pClamp 10 software through a computer. The sampling frequency was 10 kHz, and the filtering frequency was 2 kHz. After the whole cell records were obtained, the cells were clamped at -80 mV, and the step voltage that induced the hERG potassium current (I hERG) was depolarised from -80 mV to +20 mV for 2 s, then repolarised to -50 mV, and returned to -80 mV after 1 s. This voltage stimulation was given every 10 s, and the administration process was started after the hERG potassium current was confirmed to be stable (at least 1 minute). The compound was administered for at least 1 minute at each test concentration, and at least 2 cells (n ≥ 2) were tested at each concentration.
Data processing: Data analysis processing was carried out by using pClamp 10, GraphPad Prism 5 and Excel software.
Compound IC50 was calculated using GraphPad Prism 5 software by fitting according to the following equation: Y = Bottom + (Top−Bottom)/(1+10^(∧)((LogIC50−X)*HillSlope)) [formula] where X represents the Log value of the tested concentration of the test sample, Y represents the inhibition percentage at the corresponding concentration, and Bottom and Top represent the minimum and maximum inhibition percentage, respectively.
(In general: hERG is a cardiac potassium channel; its block is linked to QT prolongation.)

A short description of series [2]: Pharmacokinetic test in rats. The series is classed as in vivo, SD rats. To be noted: i.g. (5 mg/kg), vehicle 5% DMSO+5% Solutol+90% (20% SBE-β-CD); for AUC(0-t): rat, plasma, po. As for the experimental part:
Experimental objective: In this experiment, a single dose of the test compound was administered to SD rats via intravenous administration and intragastric gavage, and the concentration of the test compound in plasma of the rats was measured to evaluate the pharmacokinetic profile of the test compound in the rats.
Experimental animals: Male SD rats, 200-220 g, 6 rats/compound, purchased from Chengdu Ddossy Experimental Animals Co., Ltd.
Experimental method: On the day of the experiment, 6 SD rats were randomly grouped according to their body weights. The animals were fasted with water available for 12 to 14 h one day before the administration, and were fed 4 h after the administration. Table 3 Administration information of pharmacokinetic test in rats
Sampling: Before and after the administration, 0.1 mL of blood was taken from the orbits under isoflurane anaesthesia, and placed in an EDTAK2 centrifuge tube. Centrifugation was carried out at 5000 rpm at 4°C for 10 min, and the plasma was collected.
The plasma collection time points for IV&PO groups were 0, 5 min, 15 min, 30 min, 1 h, 2 h, 4 h, 7 h, 24 h, and 48 h.
Before analysis and detection, all samples were stored at -60°C. The samples were analysed quantitatively by LC-MS/MS. Table 4 Pharmacokinetic parameters of compounds of the present invention in plasma of rats

A further series relates to VCaP cells. As to the kind of experiment: VCaP cell proliferation inhibition experiment (CellTiter-Glo). The series is classed as cell-based. The conditions noted are these: Homo sapiens, 168 h. Here is the method: After centrifugation and resuspension, viable cell counting was performed using a Vi-Cell XR cell counter. […] Then, 180 µl of the cell suspension was added per well to a 96-well cell culture plate at a cell density of 7,500 cells/well. At the time of seeding, T0 wells were also prepared. The following day, R1881 at a final concentration of 0.1 nM and compounds at various concentrations were added. The plate was placed back into the incubator and cultured for an additional 7 days. At the time of compound addition, the T0 plate was measured using the CellTiter-Glo (CTG) kit (Promega, Cat. No. G7572) and recorded as RLU0. Following incubation, 75 µl of pre-thawed and room temperature-equilibrated CellTiter-Glo solution was added to each well. […] The results were processed according to Equation (2). […] Growth% = (RLUcompound−RLU0)/(RLUcontrol−RLU0) × 100% [formula]

Setting [3] is: Vehicle 1: 5% DMSO+5% Solutol+30% PEG400+60% (20% SBE-CD).
Setting [4] is: Vehicle 3: 5% DMSO+5% Solutol+90% (20% SBE-β-CD).

T2 sequence (Q12809 whole entry): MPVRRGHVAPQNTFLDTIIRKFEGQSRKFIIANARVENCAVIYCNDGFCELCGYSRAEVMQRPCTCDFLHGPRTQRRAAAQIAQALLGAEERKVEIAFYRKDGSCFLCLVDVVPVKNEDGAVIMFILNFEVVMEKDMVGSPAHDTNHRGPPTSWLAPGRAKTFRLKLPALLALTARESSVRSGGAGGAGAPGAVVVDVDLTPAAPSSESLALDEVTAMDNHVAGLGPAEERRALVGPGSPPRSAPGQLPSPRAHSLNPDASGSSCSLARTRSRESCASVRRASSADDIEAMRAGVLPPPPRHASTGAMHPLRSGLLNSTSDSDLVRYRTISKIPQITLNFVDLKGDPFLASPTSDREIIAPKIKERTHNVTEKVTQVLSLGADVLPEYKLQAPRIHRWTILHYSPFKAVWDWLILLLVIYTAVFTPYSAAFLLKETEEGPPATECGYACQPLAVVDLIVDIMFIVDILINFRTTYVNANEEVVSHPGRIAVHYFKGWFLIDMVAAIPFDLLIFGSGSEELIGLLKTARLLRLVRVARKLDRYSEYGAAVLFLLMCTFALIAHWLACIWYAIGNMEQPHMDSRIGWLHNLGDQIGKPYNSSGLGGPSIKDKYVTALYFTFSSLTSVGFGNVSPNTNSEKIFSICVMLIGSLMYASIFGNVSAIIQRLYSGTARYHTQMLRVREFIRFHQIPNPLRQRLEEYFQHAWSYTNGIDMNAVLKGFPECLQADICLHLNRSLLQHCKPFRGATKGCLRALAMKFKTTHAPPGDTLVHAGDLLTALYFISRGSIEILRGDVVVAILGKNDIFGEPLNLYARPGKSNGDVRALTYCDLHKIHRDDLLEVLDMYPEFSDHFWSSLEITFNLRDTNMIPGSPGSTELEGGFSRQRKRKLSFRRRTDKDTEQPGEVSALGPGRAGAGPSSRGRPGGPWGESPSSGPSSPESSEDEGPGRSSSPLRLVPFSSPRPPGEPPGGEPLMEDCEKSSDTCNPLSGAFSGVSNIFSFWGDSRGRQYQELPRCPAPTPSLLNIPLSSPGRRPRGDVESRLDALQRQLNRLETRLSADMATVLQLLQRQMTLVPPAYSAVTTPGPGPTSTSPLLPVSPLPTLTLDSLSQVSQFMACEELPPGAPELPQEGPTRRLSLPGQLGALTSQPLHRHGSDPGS

In series [1] (setting [3]), `COc1cc(O[C@H]2C(C)(C)[C@H](NC(=O)c3ccc(N4CCC(CN5CCN6c7cc(F)c(C(=O)N[C@H]8CCC(=O)NC8=O)cc7CC[C@H]6C5)CC4)cc3)C2(C)C)ccc1C#N` [Compound 13] gave an area under the curve AUC(0-t) of 33500 ± 1680 ng·h/mL. The half-maximal degradation concentration (DC50) on AR protein (read-out: DC50) was less than 100 nM.

Consider `CC1(C)[C@H](NC(=O)c2ccc(N3CCC(CN4CCN5c6cc(F)c(C7CCC(=O)NC7=O)cc6CC[C@@H]5C4)CC3)cc2)C(C)(C)[C@H]1Oc1ccc(C#N)c2ncccc12` (some centres unmarked) [Compound 30], for which the exposure AUC(0-t) in series [1] (setting [4]) turned out to be 33000 ± 9330 ng·h/mL. Besides, the half-inhibitory concentration (IC50) on hERG potassium channel is greater than 40000 nM. Also, the 50% degradation concentration (DC50) at AR protein (read-out: DC50) is less than 100 nM.

As to `CC1(C)[C@H](NC(=O)c2ccc(N3CCC(CN4CCN5c6cc(F)c(N7CCC(=O)NC7=O)cc6CC[C@@H]5C4)CC3)cc2)C(C)(C)[C@H]1Oc1ccc(C#N)c2ncccc12` [Compound 32], the AUC(0-t) in series [1] (setting [4]) was determined as 30900 ± 6080 ng·h/mL. In addition, the DC50 at AR protein (read-out: DC50) is less than 100 nM.

`COc1cc(O[C@H]2C(C)(C)[C@H](NC(=O)c3ccc(N4CCC(CN5CCN(c6ccc(C(=O)N[C@H]7CCC(=O)NC7=O)c(F)c6)CC5)CC4)cc3)C2(C)C)ccc1C#N` [Control compound, reference compound]: the F is 26.9±3.2% in series [2] and 63.4±3.3% in series [1] (setting [3]). Besides, the exposure AUC(0-t) in series [2] (male, SD) amounted to 2870 ± 338 ng·h/mL; in series [1] (male, ICR, Vehicle 1: 5% DMSO+5% Solutol+30% PEG400+60% (20% SBE-CD)) it was 20700 ± 1080 ng·h/mL. The molecule further came in with a 50% growth inhibitory concentration (GI50) in the series on VCaP cells greater than 2000 nM.

On to `COc1cc(O[C@H]2C(C)(C)[C@H](NC(=O)c3ccc(N4CCC(CN5CCN6c7cc(F)c(C8CCC(=O)NC8=O)cc7CC[C@@H]6C5)CC4)nn3)C2(C)C)ccc1C#N` (some centres unmarked) [Trifluoroacetate of compound 60], for which, in series [2], the F was 57.5±3.0% and the AUC(0-t) amounted to 6600 ± 349 ng·h/mL. The molecule also returned a concentration for 50% growth inhibition (GI50) in the series with VCaP cells of less than 300 nM. In series [1] (setting [4]), the F worked out at 84.2±8.4% and the AUC(0-t) turned out to be 41600 ± 4140 ng·h/mL. In addition, at AR protein, the DC50 was less than 100 nM.

For `COc1cc(O[C@H]2C(C)(C)[C@H](NC(=O)c3ccc(N4CCC(CN5CCN6c7cc(F)c(C8CCC(=O)NC8=O)cc7CC[C@H]6C5)CC4)nn3)C2(C)C)ccc1C#N` (some centres unmarked) [Trifluoroacetate of compound 61], the results for the F in series [2] and in series [1] (setting [4]) were 43.5+14% and 98.8±12%, respectively. For the same molecule, the AUC(0-t) in series [2] is 5460 ng·h/mL; in series [1] (setting [4]) it was 28500 ± 3460 ng·h/mL. Also, the GI50 with VCaP cells is less than 300 nM. On AR protein (read-out: DC50), the DC50 was less than 100 nM.

Molecule `COc1cc(O[C@H]2C(C)(C)[C@H](NC(=O)c3ccc(N4CCC(CN5CCN6c7cc(F)c(N8CCC(=O)NC8=O)cc7CC[C@@H]6C5)CC4)nc3)C2(C)C)ccc1C#N` [Trifluoroacetate of compound 66] had a GI50 with VCaP cells of less than 300 nM. In series [1] (setting [4]), the AUC(0-t) is 30400 ± 9310 ng·h/mL.
